Settings: human, in vivo
Protocol: The applicability of obesity-related phenotypes as actionable biomarkers was tested in three pilot, proof of concept studies (see, e.g., Acosta et al., 2015 Gastroenterology 148:537-546; Acosta et al., 2015 Physiol Rep 3; and Halawi et al., 2017 Lancet Gastroenterol Hepatol 2:890-899). First, in a single-center, randomized, parallel-group, double-blind, placebo-controlled, 14-day study, the effects of Phentermine-topiramate-ER (PhenTop) (7.5/46 mg, orally, daily) on gastric emptying (GE) and volume, satiation, satiety, and fasting and postprandial GI hormones was evaluated in 24 obese adults. […] Subsequently, in a prospective, NIH-funded, randomized, placebo controlled clinical trial to study the effects of liraglutide 3 mg, SQ, over 16 weeks on obesity phenotypes and weight in 40 obese patients. […]
A prospective, randomized clinical trial with liraglutide, a long-acting GLP-1 receptor agonist, was completed. […] At baseline and after 16 weeks' treatment, weight, gastric emptying of solids (GES, primary endpoint), large fasting gastric volumes, satiation, and satiety were measured. GES was also measured at 5 weeks. […] Effect of liraglutide on GES T1/2 at 5 and 16 weeks in the liraglutide group was analyzed by paired t-test. Seventeen participants were analyzed in the liraglutide group (n=19 randomized) and 18 in the placebo group (n=21 randomized).

Structure (SMILES): CCCCCCCCCCCCCCCC(=O)N[C@@H](CCC(=O)NCCCC[C@H](NC(=O)[C@H](C)NC(=O)[C@H](C)NC(=O)[C@H](CCC(N)=O)NC(=O)CNC(=O)[C@H](CCC(=O)O)NC(=O)[C@H](CC(C)C)NC(=O)[C@H](Cc1ccc(O)cc1)NC(=O)[C@H](CO)NC(=O)[C@H](CO)NC(=O)[C@@H](NC(=O)[C@H](CC(=O)O)NC(=O)[C@H](CO)NC(=O)[C@@H](NC(=O)[C@H](Cc1ccccc1)NC(=O)[C@@H](NC(=O)CNC(=O)[C@H](CCC(=O)O)NC(=O)[C@H](C)NC(=O)[C@@H](N)Cc1cnc[nH]1)[C@@H](C)O)[C@@H](C)O)C(C)C)C(=O)N[C@@H](CCC(=O)O)C(=O)N[C@@H](Cc1ccccc1)C(=O)N[C@H](C(=O)N[C@@H](C)C(=O)N[C@@H](Cc1c[nH]c2ccccc12)C(=O)N[C@@H](CC(C)C)C(=O)N[C@H](C(=O)N[C@@H](CCCNC(=N)N)C(=O)NCC(=O)N[C@@H](CCCNC(=N)N)C(=O)NCC(=O)O)C(C)C)[C@@H](C)CC)C(=O)O [liraglutide]
- Nausea (most common adverse event): 63.2%
